Data from patent publication US20090018194A1, “Use of antimicrobial agents derived from alliaceous plants for the prevention and control of crop diseases, post-harvest rot and as environmental disinifectant products” (DMC Research Center, S.L., priority 2007, published 2009).

Experiments:
[1] = test system: Phytophthora citrophthora; test: post-harvest rotting of inoculated oranges (Navelina), immersion treatment; assay type: in vivo
Description: (§1) This example considers the effectiveness of the active natural principles PTS and PTSO in two different doses for the control of post-harvest rotting of oranges ([…] variety), caused by controlled artificial inoculation with the fungi Penicillium digitatum, Penicillium expansum, Phytophthora citrophthora and Geotrichum candidum, the principal pathogens of this fruit. The inoculation of the oranges was carried out with suspensions of spores of the different wild fungal strains selected, according to the methodology described below. The first step was the isolation and identification of the fungal strains used in the study. The strains of filamentous fungi used in these tests (Penicillium digitatum, Penicillium italicum and Phytophthora citrophthora) were isolated from oranges affected by rot. In these isolation processes, it was not possible to detect any strain belonging to Geotrichum candidum, as a result of which it was necessary to obtain the latter substance from the Spanish Collection of Standard Cultures, where it is identified by reference CECT 1102. […] To promote the implantation of the inoculum of Geotrichum candidum, 200 ppm of cyclohexamide was added to the inoculum prior to its inoculation. […] The assessment of the effectiveness of PTS and PTSO comprised counting of the number of fruits affected by rot in the inoculated zone, to determine the percentage of fruit affected for each treatment and fungus inoculated, and expressing this effectiveness as a percentage of reduction of the affected fruit.

Geotrichum candidum = test: as above; assay type: in vivo
Description: as §1

[2] = test system: Aspergillus niger CECT 2700; test: agar diffusion test with impregnated cellulose discs; assay type: cell-based; details: incl. 6 mm disc
[3] = test system: Aspergillus terreus CECT 2663; test: as above; assay type: cell-based; details: incl. 6 mm disc
[4] = test system: Candida parapsilosis CCTM 1038; test: as above; assay type: cell-based; details: incl. 6 mm disc
[5] = test system: Penicillium sp. (CPC-PT-4); test: agar diffusion test, wild fungi isolated from crown rot in bananas; assay type: cell-based; details: incl. 6 mm disc
Total mesophilic AEROBES = test: environmental disinfection of banana storage and ripening rooms by fogging, air sampling; details: fogging of 1500 ppm solution; for MICROBE COUNTS Total mesophilic AEROBES CFU/dish: 80 liters collected/dish; for % REDUCTION OF ENVIRONMENTAL MICROBIOTA Population of total mesophilic aerobes: after vs before treatment
Description: (§2) A study was conducted to verify the environmental disinfecting capability of the compound PTS in rooms of a fruit and vegetable processing plant, in particular one that handled bananas. For test purposes, three separate rooms of the central were sampled, and the environmental quality was studied before and after the treatment with PTS. First, an environmental sample was taken in each room prior to the treatment, using an […]-Omega air sampling device manufactured by LCB, by suctioning a volume of air set at 80 L which impacted over the different cultivation media selected. The samples were taken in duplicate in the areas to be analyzed. PCA agar medium was used to count the total mesophilic aerobes, and the medium Rose Bengal agar was used to count the fungi. The environmental disinfectant treatment comprised fogging of a 1500 ppm solution of PTS. 5 liters of this solution were fogged for each 1000 m^3 of the room. […] Several hours after the fogging, the sampling operation was repeated in the different rooms that had been treated as described above. […] Once the incubation time had elapsed, the readings were taken by counting the microorganisms that appeared in each type of dish, expressed as cfu/dish.

FUNGI = test: as above; details: fogging of 1500 ppm solution; for MICROBE COUNTS FUNGI CFU/dish: 80 liters collected/dish; for % REDUCTION OF ENVIRONMENTAL MICROBIOTA Fungal population: after vs before treatment
Description: as §2

[6] = test system: Penicillium digitatum Supplied by Brogdex SA; test: agar diffusion test, wild phytopathogens isolated from citrus rot; assay type: cell-based; details: incl. 6 mm disc
[7] = test system: Penicillium sp. (CPC-PT-1); test: agar diffusion test, wild fungi isolated from crown rot in bananas; assay type: cell-based; details: incl. 6 mm disc
[8] = 1600 ppm, 4 days of treatment at 20° C.
[9] = 1600 ppm, 7 days of treatment at 20° C.
[10] = 2500 ppm, 4 days of treatment at 20° C.
[11] = 2500 ppm, 7 days of treatment at 20° C.
[12] = Zone 1 of the ripening room after treatment
[13] = Zone 2 of the ripening room after treatment

CCCS[S+]([O-])CCC (stereo not shown) [PTS, Propyl Propyl Thiosulfinate]
% Reduction [1, 8]: 60% | % of fruit affected [1, 8]: 18% | % Reduction [1, 9]: 7% | % of fruit affected [1, 9]: 93% | % Reduction [1, 10]: 70% | % of fruit affected [1, 10]: 8% | % Reduction [1, 11]: 20% | % of fruit affected [1, 11]: 80% | % Reduction (Geotrichum candidum; 1600 ppm, 7 days at 20° C.): 95% | % of fruit affected (Geotrichum candidum; 1600 ppm, 7 days at 20° C.): 5% | % Reduction (Geotrichum candidum; 1600 ppm, 14 days at 20° C.): 37% | % of fruit affected (Geotrichum candidum; 1600 ppm, 14 days at 20° C.): 63% | % Reduction (Geotrichum candidum; 2500 ppm, 7 days at 20° C.): 100% | % of fruit affected (Geotrichum candidum; 2500 ppm, 7 days at 20° C.): 0% | % Reduction (Geotrichum candidum; 2500 ppm, 14 days at 20° C.): 37% | % of fruit affected (Geotrichum candidum; 2500 ppm, 14 days at 20° C.): 63% | diameter of the microbial inhibition halo ([2]; 25 ppm): 10 mm | diameter of the microbial inhibition halo ([2]; 50 ppm): 13 mm | diameter of the microbial inhibition halo ([2]; 100 ppm): 19 mm | diameter of the microbial inhibition halo ([3]; 25 ppm): 12 mm | diameter of the microbial inhibition halo ([3]; 50 ppm): 22 mm | diameter of the microbial inhibition halo ([3]; 100 ppm): 25 mm | diameter of the microbial inhibition halo ([4]; 25 ppm): 0 mm | diameter of the microbial inhibition halo ([4]; 50 ppm): 14 mm | diameter of the microbial inhibition halo ([4]; 100 ppm): 17 mm | diameter of the microbial inhibition halo ([5]; 30 ppm): 0 mm | diameter of the microbial inhibition halo ([5]; 60 ppm): 11 mm | diameter of the microbial inhibition halo ([5]; 125 ppm): 13 mm | diameter of the microbial inhibition halo ([5]; 250 ppm): 20 mm | diameter of the microbial inhibition halo ([5]; 500 ppm): 23 mm | diameter of the microbial inhibition halo ([5]; 1000 ppm): 25 mm | MICROBE COUNTS Total mesophilic AEROBES CFU/m^3 (Total mesophilic AEROBES; Entry room after treatment): 314 CFU/m^3 | MICROBE COUNTS Total mesophilic AEROBES CFU/dish (Total mesophilic AEROBES; Entry room after treatment): 24 CFU/dish | % REDUCTION OF ENVIRONMENTAL MICROBIOTA Population of total mesophilic aerobes (Total mesophilic AEROBES; Entry room): 65% | MICROBE COUNTS Total mesophilic AEROBES CFU/m^3 (Total mesophilic AEROBES; [12]): 287 CFU/m^3 | MICROBE COUNTS Total mesophilic AEROBES CFU/dish (Total mesophilic AEROBES; [12]): 22 CFU/dish | % REDUCTION OF ENVIRONMENTAL MICROBIOTA Population of total mesophilic aerobes (Total mesophilic AEROBES; Zone 1 of the ripening room): 69% | MICROBE COUNTS Total mesophilic AEROBES CFU/m^3 (Total mesophilic AEROBES; [13]): 1487 CFU/m^3 | MICROBE COUNTS Total mesophilic AEROBES CFU/dish (Total mesophilic AEROBES; [13]): 96 CFU/dish | % REDUCTION OF ENVIRONMENTAL MICROBIOTA Population of total mesophilic aerobes (Total mesophilic AEROBES; Zone 2 of the ripening room): 58% | MICROBE COUNTS FUNGI CFU/m^3 (FUNGI; Entry room after treatment): 707 CFU/m^3 | MICROBE COUNTS FUNGI CFU/dish (FUNGI; Entry room after treatment): 51 CFU/dish | % REDUCTION OF ENVIRONMENTAL MICROBIOTA Fungal population (FUNGI; Entry room): 70% | MICROBE COUNTS FUNGI CFU/m^3 (FUNGI; [12]): 273 CFU/m^3 | MICROBE COUNTS FUNGI CFU/dish (FUNGI; [12]): 21 CFU/dish | % REDUCTION OF ENVIRONMENTAL MICROBIOTA Fungal population (FUNGI; Zone 1 of the ripening room): 23% | MICROBE COUNTS FUNGI CFU/m^3 (FUNGI; [13]): 328 CFU/m^3 | MICROBE COUNTS FUNGI CFU/dish (FUNGI; [13]): 25 CFU/dish | % REDUCTION OF ENVIRONMENTAL MICROBIOTA Fungal population (FUNGI; Zone 2 of the ripening room): 36% | diameter of the microbial inhibition halo ([6]; 30 ppm): 12 mm | diameter of the microbial inhibition halo ([6]; 60 ppm): 15 mm | diameter of the microbial inhibition halo ([6]; 125 ppm): 20 mm | diameter of the microbial inhibition halo ([6]; 250 ppm): 33 mm | diameter of the microbial inhibition halo ([6]; 500 ppm): 33 mm | diameter of the microbial inhibition halo ([6]; 1000 ppm): 35 mm | diameter of the microbial inhibition halo ([7]; 30 ppm): 0 mm | diameter of the microbial inhibition halo ([7]; 60 ppm): 0 mm | diameter of the microbial inhibition halo ([7]; 125 ppm): 11 mm | diameter of the microbial inhibition halo ([7]; 250 ppm): 15 mm | diameter of the microbial inhibition halo ([7]; 500 ppm): 18 mm | diameter of the microbial inhibition halo ([7]; 1000 ppm): 20 mm
